Assay results from patent US20140142343A1, “Novel Fragrance Compounds” (Givaudan Nederland Services B.V., priority 2006, published 2014).
≈ marks a conversion by molar mass, not a printed value.

Experiments:
[1] = system: Staphylococcus aureus ATCC 6538; assay: Minimum Inhibitory Concentration (MIC); format: cell-based; conditions: for MIC: ATCC6538, Staphylococcus aureus ATCC 6538, change in absorbance <0.2 A540; for activity against Staphylococcus aureus (in words): summary statement
Protocol: One property that characterises the effectiveness of a compound or composition to inhibit the growth of bacteria, is the minimum inhibitory concentration, or MIC, of the compound or composition. The MIC is defined as the minimum amount of a compound or composition (e.g. in ppm) at which little or no bacterial growth is observed. […] The minimum inhibitory concentration of a compound was determined by the following method. A culture of the test strains of bacteria Staphylococcus aureus ATCC 6538 (American Type Culture Collection, P.O. Box 1549, Manassas, Va. 20108, USA) was incubated for 16-24 hours, in a shaken flask at 37° C. The cultures was then diluted in sterile 0.1% TSB (Oxoid, Basingstoke, UK) to give a concentration of bacteria of approximately 10^6 colony forming units (cfu) per ml. Fragrance compounds were prepared in sterile TSB to give stock solutions with final concentrations of 40,000 ppm. The absorbance at 540 nm (hereinafter referred to for brevity and simplicity as “A540”) was used as a measure of turbidity resulting from bacterial growth. The MIC was taken as the concentration of ingredient required to inhibit growth so that the average change in absorbance during the incubation period was <0.2 A540.

[2] = system: Mosquito (Aedes aegyptii); assay: Insect repellency against mosquitoes, treated arm in cage; format: in vivo
Protocol: (§1) Compound 1 was tested for insect repellency against mosquitoes and ants. In all cases, repellency is calculated with reference to an untreated surface having 0% repellency.
(§2) Ant (Lasius niger) 300 mm square vinyl tiles half treated with 0.9 ml test material and left for 2 hours. Glass arena 250 mm square, 75 mm high and fluon coated, open to air. Arena illuminated from 1.0 m above by four 18 W fluorescent lamps. 50 black ants per arena counted every 5 minutes. Arena turned 180 degrees every 10 minutes. Any ants injured or escaping replaced. Mosquito (Aedes aegyptii) A perspex box approx 18 inch cube, with sleeved circular entry was used as the test cage. The box contained 5 day old, mated honey fed females. The area of arm to be tested was measured. The test material was applied from ethanol solution at a rate of 0.2 mg test material per square centimetre. A similar area of the other arm was used for the control. A pair of disposable gloves was worn on the hands throughout the test. In turn each arm was inserted into the cage for 30 seconds. This was repeated 3 times. The number of mosquitoes landing on the arm was recorded every five seconds. As penetration of the skin occurs within 5 seconds the arm was flicked at this frequency to dislodge the flies.

Ant (Lasius niger) = assay: Insect repellency against ants, half-treated vinyl tiles; format: in vivo
Protocol: as §1
Ant test is completed with a simplified general purpose cleaner formulation: […]
This product is applied to the floor tiles (vinyl) at the rate of 20 g·m^−2.
as §2, with “As penetration of the skin occurs within 5 seconds the arm was flicked at this frequency to dislodge the flies.” left out

MIC [1] | Compound | activity against Staphylococcus aureus (in words) [1] | repellency against mosquitoes ([2]; after 10 minutes, wrt untreated surface, 0.2 mg test material per square centimetre) | repellency properties against mosquitoes (in words) ([2]; summary statement) | repellency against ants (Ant (Lasius niger); over first hour, wrt untreated surface, 1.0% in general purpose cleaner formulation) | repellency properties against ants (in words) (Ant (Lasius niger); summary statement)
> 5000 µg/mL | CC1CCCC(CCC=O)C1 (stereo not shown) [Compound 4, 3-(3-methylcyclohexyl)propanal] | – | – | – | – | –
312 µg/mL (≈ 1590 µM) | CC(C)C1CCCC(C(C)CC=O)C1 (stereo not shown) [Compound 2, 3-(3-isopropylcyclohexyl)butanal] | excellent activity against Staphylococcus aureus | – | – | – | –
5000 µg/mL (≈ 29700 µM) | CC(C=O)CC1CCCC(C)C1 (stereo not shown) [Compound 3, 2-methyl-3-(3-methylcyclohexyl)propanal] | – | – | – | – | –
312 µg/mL (≈ 1590 µM) | CC(C)(C)C1CCCC(CCC=O)C1 (stereo not shown) [Compound 1, 3-(3-tert-butylcyclohexyl)propanal] | excellent activity against Staphylococcus aureus | 100% | excellent repellency properties | 72% | excellent repellency properties
